Assay results from article PMC9115111, “Metalloprotease Gp63-Targeting Novel Glycoside Exhibits Potential Antileishmanial Activity” (Frontiers in Cellular and Infection Microbiology, 2022).

Columns and labels:
[1] = test system: L. donovani promastigotes (AG83 strain); assay: LDH cytotoxicity assay on promastigotes, AG83 strain; format: cell-based, Leishmania donovani
Method: Promastigote forms of L. donovani (MHOM/IN/1983/AG83) were cultured at 26°C in M199 (GIBCO, India), pH 7.4, supplemented with 10% (v/v) inactivated fetal bovine serum (FBS, GIBCO, India) and 0.02 mg/ml gentamycin (Life Technologies, USA). The clinical isolate of PKDL, BS12, was obtained as a gift from Prof. Mitali Chatterjee [Department of Pharmacology, Institute of Postgraduate Medical Education and Research (IPGMER), Kolkata, India]. BS12 was routinely cultured at 22°C in M199 (GIBCO, India) with 100 U/ml penicillin-streptomycin (Gibco, Invitrogen, Thermo Fisher Scientific, NY, USA), 8 μM hemin (4 mM stock made in 50% triethanolamine) (Sigma, USA), 25 mM 4-(2-hydroxyethyl)-1-piperazineethanesulfonic acid (HEPES), supplemented with 10% heat-inactivated FBS (GIBCO, India). Cultures were maintained between 10^6 and 10^7 cells/ml for continuous exponential growth. In addition, 1 × 10^6 cells/ml parasite count was constantly maintained for all the experiments ([Ramu et al., 2017]).
(§1) All the compounds were dissolved in dimethyl sulfoxide (DMSO) (Sigma-Aldrich) for 1 mM stock solution and were screened against promastigotes at a concentration of 5 µM. For Glycosides (Gly) 2, 6, and 8, a range of concentrations starting from 100 nM to 100 µM were screened against promastigote forms of parasite and mammalian cells. Parasites (AG83 and PKDL strain) treated with amphotericin B (3 µg/ml) (Sigma-Aldrich) were maintained as the positive control.
AG83 strain of L. donovani were exposed to various Gly compound concentrations (100 nM–100 µM) in a 96-well microtiter plate (100 µl/well volume) and were incubated for 72 h at 26°C. Finally, lactate dehydrogenase (LDH) cytotoxic assay was performed as per standard protocol (CytoTox 96 Non-Radioactive Cytotoxicity Assay-Promega, USA). The percent cytotoxicity of test compounds was calculated by normalizing with amphotericin B as 100%. Further percentage growth inhibition was calculated using the formula:
% Growth Inhibition = Gly treated LDH activity- Spontaneous LDH activity
/Maximum LDH activity- Spontaneous LDH activity * 100
As per the formula, the spontaneous LDH Activity = activity of the untreated cells and the maximum LDH activity = activity of the amphotericin B-treated cells. IC50 value for Gly2, 6, and 8 treated was generated for AG83 and PKDL strain of L. donovani using sigmoidal dose–response model with nonlinear regression tool ([Ramu et al., 2017]).

[2] = test system: J774.A1 murine macrophage cells; assay: MTT cell viability assay on macrophages; format: cell-based
Method: (§2) The J774.A1 murine macrophage cells were grown in Roswell Park Memorial Institute (RPMI) 1640 medium in the presence of 10% (v/v) FBS and 100 U/ml penicillin−100 µg/ml streptomycin (Gibco, Invitrogen, Thermo Fisher Scientific, NY, USA) at 37°C (humidified) and 5% CO2. […] Madin–Darby canine kidney (MDCK) cells were obtained from the National Centre for Cell Science, Pune, India. MDCK cells were derived from the kidney tissue of an adult female Cocker Spaniel. These were grown in Dulbecco’s modified Eagle’s minimal essential medium (DMEM) in the presence of 10% (v/v) FBS and 100 U/ml penicillin−100 µg/ml streptomycin (Gibco, Invitrogen, Thermo Fisher Scientific, NY, USA) at 37°C (humidified) and 5% CO2 ([Ayana et al., 2018]; [Shivappagowdar et al., 2021]).
as §1
(§3) To evaluate the cytotoxic effects of 12 compounds on L. donovani promastigotes, LDH assay was performed. This assay involves the reduction of tetrazolium salts to formazan during LDH-mediated catalysis of lactate to pyruvate, which can be detected at […]. Rate of formazan formation is proportional to the release of LDH through damaged cell membranes. For the preliminary screening, the promastigotes were incubated with 12 compounds at a single concentration of 5 µM for a period of 72 h, and the released LDH was estimated ( Supplementary Figure S1A ). Amphotericin B-treated promastigotes were taken as the positive control. […] Having observed the antileishmanial effect of Gly2 on growth and proliferation of promastigotes, we next investigated the cytotoxicity of Gly2 on mammalian cells (MDCK, J774.1A) through MTT (3-(4, 5-dimethylthiazolyl-2)-2, 5-diphenyltetrazolium bromide) cell viability assay ( Supplementary Figures S1B, C ). […] The CC50 values of Gly2 analog was in the micromolar range. The selectivity index (SI) for the compound was calculated as the ratio between cytotoxicity (CC50) and activity (IC50) against promastigotes ( Table 1 ).

[3] = test system: L. donovani promastigotes; assay: Hoechst/PI live/dead dual staining of promastigotes; format: cell-based, Leishmania donovani; conditions: 5 µM, 72 h
Method: The toxic effect of the three compounds, Gly2, 6, and 8 on promastigotes at 5 µM >IC50 concentration was measured by Hoechst and propidium iodide (PI) double staining. […], parasites were harvested, washed in 0.01 M PBS (pH = 7.4), and stained with Hoechst 33258 (1 µg/ml) (Life Technologies, USA) and PI (5 µg/ml) (Life Technologies, USA) followed by incubation for a period of 20 min at 37°C. Subsequently, cells were washed for excessive stain removal and visualized using fluorescence microscope with 510–560-nm filter block for PI red fluorescence and excitation/emission spectra at 361/497 for Hoechst ([López-Arencibia et al., 2015]).

[4] = test system: L. donovani intracellular amastigotes in J774.A1 macrophages; assay: Intramacrophage amastigote assay (Giemsa staining, J774.A1); format: cell-based, Leishmania donovani; conditions: treated at IC50 concentration, 24 h; untreated control ~5
Method: For evaluating the efficacy of compounds against intramacrophage amastigotes, Giemsa staining (Sigma-Aldrich) was performed. J774.A1 murine macrophage cells were plated at a cell density of 5 × 10^5 cell/well in a 6-well flat bottom plate. The cells were infected with late-stage L. donovani, rich in promastigotes at a ratio of 10:1. After 6 h, uninfected promastigotes were washed off with PBS.

[5] = MTT cell viability assay on macrophages; format: cell-based, murine; conditions: mouse, J774.A1 macrophage cells; Table 1; macrophages
Method: as §2, §1, §3

[6] = Table 1, activity against promastigotes
[7] = Leishmania donovani, AG83 promastigotes, LDH assay 72 h, sigmoidal curve, normalised to amphotericin B 3 µg/ml as 100%
[8] = Leishmania donovani, Table 1, activity against promastigotes

| Compound | IC50 [1, 6] | CC50 [2] | dead parasites (PI positive) [3] | IC50 [1, 7] | IC50 [1, 8] | number of amastigotes per infected macrophage [4] | CC50 [5] |
| --- | --- | --- | --- | --- | --- | --- | --- |
| CC(=O)N[C@H]1[C@@H](OCCC(C)C)O[C@H](COC(C)=O)[C@@H](OC(C)=O)[C@@H]1OC(C)=O [Gly11] | 43 µM | 179 µM | – | – | – | – | – |
| CCOC1O[C@H](CO)[C@@H](O)[C@H](O)[C@H]1NC(C)=O (stereo partly drawn) [Gly1, ethyl glycoside N-Acetyl-D-glucosamine] | 65 µM | 248 µM | – | – | – | – | – |
| CCOC1O[C@H](COC(C)=O)[C@@H](OC(C)=O)[C@H](OC(C)=O)[C@H]1OC(C)=O (stereo partly shown) [Gly7] | 77 µM | 299 µM | – | – | – | – | – |
| CCCOC1O[C@H](COC(C)=O)[C@@H](OC(C)=O)[C@H](OC(C)=O)[C@H]1OC(C)=O (stereo partly drawn) [Gly8, (2R,3R,4S,5R)-2-(acetoxymethyl)-6-propoxytetrahydro-2H-pyran-3,4,5-triyl triacetate] | – | – | 75.47% | 1.61 µM | 1.6 µM | ~2 amastigotes/macrophages | 959 µM |
| CC(=O)OC[C@H]1OC(OCCC(C)C)[C@H](OC(C)=O)[C@@H](OC(C)=O)[C@@H]1OC(C)=O (stereo partly shown) [Gly6] | – | – | ~ 33.72% | 2.94 µM | 3.4 µM | ~ 3 amastigotes/macrophages | 1030 µM |
| CCCCCCOC1O[C@H](COC(C)=O)[C@@H](OC(C)=O)[C@H](OC(C)=O)[C@H]1OC(C)=O (stereo partly shown) [Gly5] | 5.97 µM | 159 µM | – | – | – | – | – |
| CCCCCCOC1O[C@H](CO)[C@@H](O)[C@H](O)[C@H]1O (stereo partly shown) [Gly3] | 12.7 µM | 1680 µM | – | – | – | – | – |
| CCCCOC1O[C@H](COC(C)=O)[C@@H](OC(C)=O)[C@H](OC(C)=O)[C@H]1OC(C)=O (stereo partly shown) [Gly4] | 4.6 µM | 167 µM | – | – | – | – | – |
| CCCCO[C@H]1O[C@H](COC(C)=O)[C@@H](OC(C)=O)[C@H](OC(C)=O)[C@H]1NC(C)=O [Gly12] | 95 µM | 279 µM | – | – | – | – | – |
| CC(=O)OC[C@H]1OC(OC(C)C)[C@H](OC(C)=O)[C@@H](OC(C)=O)[C@@H]1OC(C)=O (stereo partly shown) [Gly9] | 36 µM | 256 µM | – | – | – | – | – |
| CCCOC1O[C@H](COC(C)=O)[C@@H](OC(C)=O)[C@H](OC(C)=O)[C@H]1NC(C)=O (stereo partly shown) [Gly10] | 25.2 µM | 239 µM | – | – | – | – | – |
